Numbering of substitutions follows the chain as printed. Where “and” joins values, the source holds several entries; their conditions need not be identical. Equal values may be shown once. Read-outs that look alike come from different tables or passages of the source.
What was measured:
FLT3 (ITD)-NPOS = FLT3 (ITD)-NPOS (Homo sapiens, UniProt P36888, ITD); assay: Reaction Biology Kinase HotSpot radiometric kinase assay; format: biochemical
Source text: (§1) (specific activity approx. 500 cpm/pmol, concentration as required).

FLT3 (F594_R595 ins R) = molecular target: T1, FLT3 (F594_R595 ins R) (Homo sapiens, UniProt P36888, INS594R); assay: as above; format: biochemical
T1 construct: purchased Reaction Biology Corp. (Kinase HotSpot service)
Source text: as §1

[1] = molecular target: T2, FLT3 (Y591_V592 ins VDFREYEYD) (Homo sapiens, UniProt P36888, INS591VDFREYEYD); assay: as above; format: biochemical
T2 construct: purchased Reaction Biology Corp. (Kinase HotSpot service)
Source text: as §1

FLT3 (ITD)-W51 = molecular target: T3, FLT3 (ITD)-W51 (Homo sapiens, UniProt P36888, DUP595-601); assay: as above; format: biochemical
T3 construct: purchased Reaction Biology Corp. (Kinase HotSpot service)
Source text: as §1

FLT3 (R595_E596 ins EY) = molecular target: T4, FLT3 (R595_E596 ins EY) (Homo sapiens, UniProt P36888, INS595EY); assay: as above; format: biochemical
T4 construct: purchased Reaction Biology Corp. (Kinase HotSpot service)
Source text: as §1

AKT1 = molecular target: T5, AKT1 (Homo sapiens, UniProt P31749); assay: Kinase HotSpot kinase profiling; format: biochemical; settings: read-out: % Inhibition AKT1
T5 construct: purchased Reaction Biology Corp. (Kinase HotSpot service)
Source text: as §1

FGFR3 = molecular target: T6, FGFR3 (Homo sapiens, UniProt P22607); assay: Kinase HotSpot kinase profiling; format: biochemical; settings: read-out: % Inhibition FGFR3
T6 construct: purchased Reaction Biology Corp. (Kinase HotSpot service)
Source text: as §1

Aurora A = molecular target: T7, Aurora A (Homo sapiens, UniProt O14965); assay: Kinase HotSpot kinase profiling; format: biochemical; settings: read-out: % Inhibition Aurora A
T7 construct: purchased Reaction Biology Corp. (Kinase HotSpot service)
Source text: as §1

c-MER = molecular target: T8, c-MER (Homo sapiens, UniProt Q12866); assay: Kinase HotSpot kinase profiling; format: biochemical; settings: read-out: % Inhibition c-MER
T8 construct: purchased Reaction Biology Corp. (Kinase HotSpot service)
T8 sequence (Q12866 21-999): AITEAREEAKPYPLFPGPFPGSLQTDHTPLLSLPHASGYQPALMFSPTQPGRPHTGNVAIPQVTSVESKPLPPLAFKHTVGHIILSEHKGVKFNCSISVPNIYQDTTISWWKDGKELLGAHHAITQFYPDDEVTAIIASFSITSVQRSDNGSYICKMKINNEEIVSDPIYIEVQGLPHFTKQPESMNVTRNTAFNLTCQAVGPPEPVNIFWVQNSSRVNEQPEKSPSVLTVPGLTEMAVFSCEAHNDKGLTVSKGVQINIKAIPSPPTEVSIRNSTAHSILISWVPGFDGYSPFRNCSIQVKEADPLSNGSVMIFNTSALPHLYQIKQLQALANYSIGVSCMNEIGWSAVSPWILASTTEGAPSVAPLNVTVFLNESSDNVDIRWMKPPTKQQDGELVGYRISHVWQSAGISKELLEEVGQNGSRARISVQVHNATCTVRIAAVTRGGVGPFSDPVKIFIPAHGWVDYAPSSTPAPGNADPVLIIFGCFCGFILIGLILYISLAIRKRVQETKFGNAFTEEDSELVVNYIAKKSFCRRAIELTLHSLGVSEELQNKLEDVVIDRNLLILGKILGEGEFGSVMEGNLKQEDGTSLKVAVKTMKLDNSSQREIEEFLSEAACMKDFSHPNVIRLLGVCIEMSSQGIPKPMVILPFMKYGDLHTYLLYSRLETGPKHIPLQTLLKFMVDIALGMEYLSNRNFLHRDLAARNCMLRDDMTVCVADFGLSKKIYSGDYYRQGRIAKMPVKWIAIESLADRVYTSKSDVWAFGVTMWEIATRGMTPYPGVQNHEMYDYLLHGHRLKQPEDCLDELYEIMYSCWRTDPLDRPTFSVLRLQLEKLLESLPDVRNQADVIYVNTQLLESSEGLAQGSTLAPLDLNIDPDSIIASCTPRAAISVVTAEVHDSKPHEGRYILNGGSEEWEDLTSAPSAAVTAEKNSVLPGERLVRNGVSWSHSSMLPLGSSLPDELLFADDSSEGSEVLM
Source text: as §1

ALK = molecular target: T9, ALK (Homo sapiens, UniProt Q9UM73); assay: Kinase HotSpot kinase profiling; format: biochemical; settings: read-out: % Inhibition ALK
T9 construct: purchased Reaction Biology Corp. (Kinase HotSpot service)
Source text: as §1

ERK1 = molecular target: T10, ERK1 (Homo sapiens, UniProt P27361); assay: Kinase HotSpot kinase profiling; format: biochemical; settings: read-out: % Inhibition ERK1
T10 construct: purchased Reaction Biology Corp. (Kinase HotSpot service)
Source text: as §1

FMS = molecular target: T11, FMS (Homo sapiens, UniProt P07333); assay: Kinase HotSpot kinase profiling; format: biochemical; settings: read-out: % Inhibition FMS
T11 construct: purchased Reaction Biology Corp. (Kinase HotSpot service)
Source text: as §1

c-MET = molecular target: T12, c-MET (Homo sapiens, UniProt P08581); assay: Kinase HotSpot kinase profiling; format: biochemical; settings: read-out: % Inhibition c-MET
T12 construct: purchased Reaction Biology Corp. (Kinase HotSpot service)
Source text: as §1

EGFR = molecular target: T13, EGFR (Homo sapiens, UniProt P00533); assay: Kinase HotSpot kinase profiling; format: biochemical; settings: read-out: % Inhibition EGFR
T13 construct: purchased Reaction Biology Corp. (Kinase HotSpot service)
Source text: as §1

FYN = molecular target: T14, FYN (Homo sapiens, UniProt P06241); assay: Kinase HotSpot kinase profiling; format: biochemical
T14 construct: purchased Reaction Biology Corp. (Kinase HotSpot service)
Source text: as §1

AXL = molecular target: T15, AXL (Homo sapiens, UniProt P30530); assay: Kinase HotSpot kinase profiling; format: biochemical; settings: read-out: % Inhibition AXL
T15 construct: purchased Reaction Biology Corp. (Kinase HotSpot service)
Source text: as §1

BTK = molecular target: T16, BTK (Homo sapiens, UniProt Q06187); assay: Kinase HotSpot kinase profiling; format: biochemical; settings: read-out: % Inhibition BTK
T16 construct: purchased Reaction Biology Corp. (Kinase HotSpot service)
Source text: as §1

c-Src = molecular target: T17, c-Src (Homo sapiens, UniProt P12931); assay: Kinase HotSpot kinase profiling; format: biochemical; settings: read-out: % Inhibition c-Src
T17 construct: purchased Reaction Biology Corp. (Kinase HotSpot service)
T17 sequence (P12931 whole entry): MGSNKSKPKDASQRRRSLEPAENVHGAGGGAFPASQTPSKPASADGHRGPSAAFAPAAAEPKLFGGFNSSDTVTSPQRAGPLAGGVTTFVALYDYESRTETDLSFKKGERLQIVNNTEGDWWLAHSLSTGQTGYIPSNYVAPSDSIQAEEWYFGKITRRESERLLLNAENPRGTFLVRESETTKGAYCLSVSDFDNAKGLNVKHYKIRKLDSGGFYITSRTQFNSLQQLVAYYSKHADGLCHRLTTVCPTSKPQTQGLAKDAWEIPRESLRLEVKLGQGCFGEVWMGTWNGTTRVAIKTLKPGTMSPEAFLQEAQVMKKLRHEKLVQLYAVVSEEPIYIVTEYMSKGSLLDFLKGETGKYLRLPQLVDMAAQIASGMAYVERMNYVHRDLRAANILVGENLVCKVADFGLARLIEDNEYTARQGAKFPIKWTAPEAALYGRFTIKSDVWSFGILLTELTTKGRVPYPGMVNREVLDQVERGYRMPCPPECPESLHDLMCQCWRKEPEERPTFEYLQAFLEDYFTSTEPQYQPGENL
Source text: as §1

BRAF (V599E) = molecular target: T18, BRAF (V599E) (Homo sapiens, UniProt P15056, V600E); assay: Kinase HotSpot kinase profiling; format: biochemical
T18 construct: purchased Reaction Biology Corp. (Kinase HotSpot service)
Source text: as §1

AXL (R499C) = molecular target: T19, AXL (R499C) (Homo sapiens, UniProt P30530, R499C); assay: Kinase HotSpot kinase profiling; format: biochemical; settings: read-out: % Inhibition AXL (R499C)
T19 construct: purchased Reaction Biology Corp. (Kinase HotSpot service)
Source text: as §1

FLT3-ITD = FLT3-ITD (Homo sapiens, UniProt P36888, ITD); assay: Kinase HotSpot kinase profiling; format: biochemical
Source text: as §1

TRKC = molecular target: T20, TRKC (Homo sapiens, UniProt Q16288); assay: Reaction Biology Kinase HotSpot kinase assay; format: biochemical
T20 construct: purchased Reaction Biology Corp. (Kinase HotSpot service)
T20 sequence (Q16288 32-839): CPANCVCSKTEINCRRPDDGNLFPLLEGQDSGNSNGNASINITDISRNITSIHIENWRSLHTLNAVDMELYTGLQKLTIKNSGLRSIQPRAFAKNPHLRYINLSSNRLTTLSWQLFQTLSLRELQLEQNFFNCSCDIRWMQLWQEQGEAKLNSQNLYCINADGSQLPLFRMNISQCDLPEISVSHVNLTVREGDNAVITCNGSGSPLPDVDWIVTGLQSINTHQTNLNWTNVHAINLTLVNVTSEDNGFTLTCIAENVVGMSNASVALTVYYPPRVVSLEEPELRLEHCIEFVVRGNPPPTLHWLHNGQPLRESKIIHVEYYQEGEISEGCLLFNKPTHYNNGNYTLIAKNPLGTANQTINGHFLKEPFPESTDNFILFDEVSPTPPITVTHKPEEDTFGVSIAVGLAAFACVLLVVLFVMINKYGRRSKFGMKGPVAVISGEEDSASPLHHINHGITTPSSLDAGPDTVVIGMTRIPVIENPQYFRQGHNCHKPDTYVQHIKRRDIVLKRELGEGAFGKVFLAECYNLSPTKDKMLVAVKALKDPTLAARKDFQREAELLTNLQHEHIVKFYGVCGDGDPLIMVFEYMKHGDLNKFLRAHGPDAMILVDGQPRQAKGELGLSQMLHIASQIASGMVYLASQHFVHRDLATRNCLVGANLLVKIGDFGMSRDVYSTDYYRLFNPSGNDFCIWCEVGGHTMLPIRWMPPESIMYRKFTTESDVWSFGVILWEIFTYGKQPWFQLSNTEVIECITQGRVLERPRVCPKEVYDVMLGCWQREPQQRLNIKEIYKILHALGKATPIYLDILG
Source text: as §1

CAMKK1 = molecular target: T21, CAMKK1 (Homo sapiens, UniProt Q8N5S9); assay: Reaction Biology Kinase HotSpot kinase assay; format: biochemical
T21 construct: purchased Reaction Biology Corp. (Kinase HotSpot service)
T21 sequence (Q8N5S9 whole entry): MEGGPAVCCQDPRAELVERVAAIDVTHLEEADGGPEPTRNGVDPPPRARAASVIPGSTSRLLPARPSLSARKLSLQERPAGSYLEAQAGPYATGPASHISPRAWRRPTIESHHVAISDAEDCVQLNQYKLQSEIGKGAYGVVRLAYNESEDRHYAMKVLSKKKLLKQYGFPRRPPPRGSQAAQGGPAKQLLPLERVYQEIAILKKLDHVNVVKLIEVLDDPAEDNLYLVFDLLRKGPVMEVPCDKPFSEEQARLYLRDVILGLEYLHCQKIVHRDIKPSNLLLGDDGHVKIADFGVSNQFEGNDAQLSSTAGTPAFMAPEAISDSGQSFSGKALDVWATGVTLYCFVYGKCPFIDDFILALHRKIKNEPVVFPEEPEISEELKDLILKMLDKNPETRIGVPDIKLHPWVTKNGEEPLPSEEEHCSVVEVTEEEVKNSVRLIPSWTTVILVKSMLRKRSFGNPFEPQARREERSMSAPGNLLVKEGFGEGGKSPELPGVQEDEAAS
Source text: as §1

c-Kit = molecular target: T22, c-Kit (Homo sapiens, UniProt P10721); assay: Reaction Biology Kinase HotSpot kinase assay; format: biochemical
T22 construct: purchased Reaction Biology Corp. (Kinase HotSpot service)
T22 sequence (P10721 26-976): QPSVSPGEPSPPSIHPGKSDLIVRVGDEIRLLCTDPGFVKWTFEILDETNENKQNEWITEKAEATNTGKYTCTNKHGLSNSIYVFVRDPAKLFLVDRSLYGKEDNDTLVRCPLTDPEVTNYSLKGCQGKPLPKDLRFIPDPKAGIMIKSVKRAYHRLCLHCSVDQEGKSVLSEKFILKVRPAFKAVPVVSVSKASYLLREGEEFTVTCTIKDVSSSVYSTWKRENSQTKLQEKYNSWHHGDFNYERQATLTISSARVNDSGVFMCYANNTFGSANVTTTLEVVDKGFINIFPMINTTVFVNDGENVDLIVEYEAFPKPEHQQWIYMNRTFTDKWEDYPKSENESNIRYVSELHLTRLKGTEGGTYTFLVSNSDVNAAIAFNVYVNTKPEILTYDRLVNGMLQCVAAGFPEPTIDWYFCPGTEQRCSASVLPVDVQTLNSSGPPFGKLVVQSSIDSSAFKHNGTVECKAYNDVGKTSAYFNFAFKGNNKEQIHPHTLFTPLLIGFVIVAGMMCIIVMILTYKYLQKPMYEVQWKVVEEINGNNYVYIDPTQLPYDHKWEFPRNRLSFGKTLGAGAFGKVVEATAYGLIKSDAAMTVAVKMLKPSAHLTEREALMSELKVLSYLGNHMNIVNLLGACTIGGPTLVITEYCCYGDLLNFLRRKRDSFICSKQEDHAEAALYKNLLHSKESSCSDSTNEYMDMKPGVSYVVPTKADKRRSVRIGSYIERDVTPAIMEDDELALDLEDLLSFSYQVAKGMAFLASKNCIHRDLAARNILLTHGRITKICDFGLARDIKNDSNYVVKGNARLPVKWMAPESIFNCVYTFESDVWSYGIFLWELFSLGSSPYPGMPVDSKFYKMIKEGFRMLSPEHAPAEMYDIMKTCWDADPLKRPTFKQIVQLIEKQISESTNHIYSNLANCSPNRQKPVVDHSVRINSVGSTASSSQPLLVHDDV
Source text: as §1

ABL1 = molecular target: T23, ABL1 (Homo sapiens, UniProt P00519); assay: Reaction Biology Kinase HotSpot kinase assay; format: biochemical
T23 construct: purchased Reaction Biology Corp. (Kinase HotSpot service)
T23 sequence (P00519 whole entry): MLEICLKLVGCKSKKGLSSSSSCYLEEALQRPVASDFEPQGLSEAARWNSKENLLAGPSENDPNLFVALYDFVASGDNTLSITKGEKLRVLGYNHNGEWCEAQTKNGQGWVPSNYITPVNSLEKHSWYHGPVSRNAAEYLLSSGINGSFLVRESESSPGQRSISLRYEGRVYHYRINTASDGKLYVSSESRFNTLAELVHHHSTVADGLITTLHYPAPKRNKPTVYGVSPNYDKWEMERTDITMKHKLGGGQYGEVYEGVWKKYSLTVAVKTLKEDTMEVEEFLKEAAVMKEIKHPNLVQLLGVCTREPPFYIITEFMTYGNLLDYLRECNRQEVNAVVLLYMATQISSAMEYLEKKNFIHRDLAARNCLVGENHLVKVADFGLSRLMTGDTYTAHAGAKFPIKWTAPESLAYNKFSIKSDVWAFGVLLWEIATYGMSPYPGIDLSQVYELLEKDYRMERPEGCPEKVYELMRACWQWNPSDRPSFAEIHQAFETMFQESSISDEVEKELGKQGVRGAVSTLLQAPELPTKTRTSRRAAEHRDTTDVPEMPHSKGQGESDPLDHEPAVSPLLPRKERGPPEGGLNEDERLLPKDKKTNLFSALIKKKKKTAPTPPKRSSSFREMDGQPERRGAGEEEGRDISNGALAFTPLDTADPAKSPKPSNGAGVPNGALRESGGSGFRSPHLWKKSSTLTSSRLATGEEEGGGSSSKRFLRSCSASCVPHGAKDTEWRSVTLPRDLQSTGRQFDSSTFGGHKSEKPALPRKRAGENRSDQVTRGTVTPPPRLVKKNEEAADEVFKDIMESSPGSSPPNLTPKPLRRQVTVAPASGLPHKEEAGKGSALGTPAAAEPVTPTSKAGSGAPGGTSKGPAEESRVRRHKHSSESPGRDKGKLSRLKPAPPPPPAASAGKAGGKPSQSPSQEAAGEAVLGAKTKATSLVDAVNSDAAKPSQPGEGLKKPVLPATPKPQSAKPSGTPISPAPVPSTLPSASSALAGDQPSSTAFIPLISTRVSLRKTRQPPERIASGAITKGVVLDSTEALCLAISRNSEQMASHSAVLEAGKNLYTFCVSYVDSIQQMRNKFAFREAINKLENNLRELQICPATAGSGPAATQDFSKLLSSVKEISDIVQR
Source text: as §1

FLT3 (D835Y) = molecular target: T24, FLT3 (D835Y) (Homo sapiens, UniProt P36888, D835Y); assay: Reaction Biology Kinase HotSpot radiometric kinase assay; format: biochemical
T24 construct: purchased Reaction Biology Corp. (Kinase HotSpot service)
T24 sequence (P36888 27-993 D835Y): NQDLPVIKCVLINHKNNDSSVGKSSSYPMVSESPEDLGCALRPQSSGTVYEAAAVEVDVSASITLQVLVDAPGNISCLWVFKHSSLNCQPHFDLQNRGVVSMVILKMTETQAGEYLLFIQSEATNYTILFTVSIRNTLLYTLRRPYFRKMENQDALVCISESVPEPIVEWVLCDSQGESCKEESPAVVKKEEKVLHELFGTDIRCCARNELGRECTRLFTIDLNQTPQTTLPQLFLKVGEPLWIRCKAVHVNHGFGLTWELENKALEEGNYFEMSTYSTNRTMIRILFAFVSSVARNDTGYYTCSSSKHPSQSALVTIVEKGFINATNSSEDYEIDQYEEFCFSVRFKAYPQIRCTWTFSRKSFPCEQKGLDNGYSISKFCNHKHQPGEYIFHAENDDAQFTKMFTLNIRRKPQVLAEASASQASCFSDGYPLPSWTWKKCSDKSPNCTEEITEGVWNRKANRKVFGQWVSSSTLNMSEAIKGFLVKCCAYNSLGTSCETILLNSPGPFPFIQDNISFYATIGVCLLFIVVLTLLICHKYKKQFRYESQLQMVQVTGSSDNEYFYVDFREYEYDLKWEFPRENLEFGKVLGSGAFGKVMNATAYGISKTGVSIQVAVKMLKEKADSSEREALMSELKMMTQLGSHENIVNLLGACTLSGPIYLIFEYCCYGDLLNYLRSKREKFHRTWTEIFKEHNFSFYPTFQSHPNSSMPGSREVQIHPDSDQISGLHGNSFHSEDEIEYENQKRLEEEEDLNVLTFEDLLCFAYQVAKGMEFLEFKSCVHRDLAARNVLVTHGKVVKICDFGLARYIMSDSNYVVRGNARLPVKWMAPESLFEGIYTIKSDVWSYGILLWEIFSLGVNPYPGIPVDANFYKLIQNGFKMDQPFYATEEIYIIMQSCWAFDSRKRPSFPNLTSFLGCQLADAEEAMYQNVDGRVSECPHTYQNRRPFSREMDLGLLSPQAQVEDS
Source text: as §1

FLT3 wild type = molecular target: T25, FLT3 wild type (Homo sapiens, UniProt P36888); assay: as above; format: biochemical; settings: ATP 10 µM
T25 construct: purchased Reaction Biology Corp. (Kinase HotSpot service)
T25 sequence (P36888 27-993): T24 sequence (P36888 27-993 D835Y) with Y809D
Source text: as §1

CCN1CCN(Cc2cc(C(=O)Nc3ccc4[nH]c(-c5ccc6cn[nH]c6c5)nc4c3)cc(C(F)(F)F)c2)CC1 [8r, N-(2-(1H-Indazol-6-yl)-1H-benzo[d]imidazol-5-yl)-3-((4-ethylpiperazin-1-yl)methyl)-5-(trifluoromethyl)benzamide]
IC50 (FLT3 (ITD)-NPOS): 41.5 nM
inhibition at 1 µM (FLT3 (ITD)-NPOS): 88%
IC50 (FLT3 (F594_R595 ins R)): 37.3 nM
inhibition at 1 µM (FLT3 (F594_R595 ins R); read-out: % Inhibition FLT3 (F594_R595insR)): 92%
IC50 [1]: 49.5 nM
inhibition at 1 µM ([1]; read-out: % Inhibition FLT3 (Y591_V592insVDFREYEYD)): 90.9%
IC50 (FLT3 (ITD)-W51): 22.8 nM
inhibition at 1 µM (FLT3 (ITD)-W51; read-out: % Inhibition FLT3 (ITD)-W51): 93.9%
IC50 (FLT3 (R595_E596 ins EY)): 24.8 nM
inhibition at 1 µM (FLT3 (R595_E596 ins EY); read-out: % Inhibition FLT3 (R595_E596insEY)): 93.9%
inhibition at 1 µM (AKT1): 3.09%
inhibition at 1 µM (FGFR3): 0%
inhibition at 1 µM (Aurora A): 7.47%
inhibition at 1 µM (c-MER): 7.3%
inhibition at 1 µM (ALK): 7.5%
inhibition at 1 µM (ERK1): 0%
inhibition at 1 µM (FMS): 0.531%
inhibition at 1 µM (c-MET): 6.53%
inhibition at 1 µM (EGFR): 0.274%
inhibition at 1 µM (FYN): 18%
inhibition at 1 µM (AXL): 1.88%
inhibition at 1 µM (BTK): 17.5%
inhibition at 1 µM (c-Src): 1.94%
inhibition at 1 µM (BRAF (V599E)): 1%
inhibition at 1 µM (AXL (R499C)): 6.64%
inhibition at 1 µM (FLT3-ITD): 88%
melting point: 265 to 267 °C
IC50 (TRKC): 1520 nM
inhibition at 1 µM (TRKC): > 20%
IC50 (CAMKK1): 395 nM
inhibition at 1 µM (CAMKK1; read-out: % Inhibition CAMKK1): > 20%
inhibition at 1 µM (CAMKK1; read-out: % Inhibition CAMKK1, 8r at 1 µM single dose): 32.5%
IC50 (c-Kit): 4.57 µM
inhibition at 1 µM (c-Kit; read-out: % Inhibition c-Kit): 19%
IC50 (ABL1): 3.09 µM
inhibition at 1 µM (ABL1; read-out: % Inhibition ABL1): 18.4%

CN1CCCC(Nc2cc(C(=O)Nc3ccc4[nH]c(-c5ccc6cn[nH]c6c5)nc4c3)cc(C(F)(F)F)c2)C1 (centres unmarked) [8v, N-(2-(1H-Indazol-6-yl)-1H-benzo[d]imidazol-5-yl)-3-((1-methylpiperidin-3-yl)amino)-5-(trifluoromethyl)benzamide]
IC50 (FLT3 (D835Y)): 8.86 nM and 9 nM
fold more potent against FLT3-D835Y than against wild-type FLT3 (FLT3 (D835Y); ratio of IC50 values): 7- to 12 fold
IC50 (FLT3 wild type; read-out: FLT3 IC50): 107 nM
melting point: 213 to 214 °C

CCN1CCN(Cc2ccc(C(=O)Nc3ccc4[nH]c(-c5ccc6cn[nH]c6c5)nc4c3)cc2C(F)(F)F)CC1 [8w, N-(2-(1H-Indazol-6-yl)-1H-benzo[d]imidazol-5-yl)-4-((4-ethylpiperazin-1-yl)methyl)-3-(trifluoromethyl)benzamide]
IC50 (FLT3 (D835Y)): 13 nM
IC50 (FLT3 wild type; read-out: FLT3 IC50): 290 nM
melting point: 164 to 166 °C

CN1CCC(Oc2ccc(C(=O)Nc3ccc4[nH]c(-c5ccc6cn[nH]c6c5)nc4c3)cc2C(F)(F)F)CC1 [8x, N-(2-(1H-Indazol-6-yl)-1H-benzo[d]imidazol-5-yl)-4-((1-methylpiperidin-4-yl)oxy)-3-(trifluoromethyl)benzamide]
IC50 (FLT3 (D835Y)): 145 nM
IC50 (FLT3 wild type; read-out: FLT3 IC50): 743 nM
melting point: 293 to 295 °C

CCN1CCN(Cc2cc(C(=O)Nc3ccc4[nH]c(-c5ccc6cn[nH]c6c5)nc4c3)cc(C(F)(F)F)c2)CC1(C)C [8y, N-(2-(1H-Indazol-6-yl)-1H-benzo[d]imidazol-5-yl)-3-((4-ethyl-3,3-dimethylpiperazin-1-yl)methyl)-5-(trifluoromethyl)benzamide]
IC50 (FLT3 (D835Y)): 42 nM
IC50 (FLT3 wild type; read-out: FLT3 IC50): 145 nM
melting point: 255 to 257 °C

CCN1CCN(c2cc(C(=O)Nc3ccc4[nH]c(-c5ccc6cn[nH]c6c5)nc4c3)cc(C(F)(F)F)c2)CC1(C)C [8z, N-(2-(1H-Indazol-6-yl)-1H-benzo[d]imidazol-5-yl)-3–(4-ethyl-3,3-dimethylpiperazin-1-yl)-5-(trifluoromethyl)benzamide]
IC50 (FLT3 (D835Y)): 46 nM
IC50 (FLT3 wild type; read-out: FLT3 IC50): 66 nM
IC50 (FLT3 wild type; read-out: FLT3 wild type IC50): 65.9 nM
melting point: 153 to 154 °C

Source: publication PMC8788362, “Rational design and synthesis of 2-(1H-indazol-6-yl)-1H-benzo[d]imidazole derivatives as inhibitors targeting FMS-like tyrosine kinase 3 (FLT3) and its mutants” (Journal of Enzyme Inhibition and Medicinal Chemistry, 2022)
